Results reported in patent EP4417602A1, “SUBSTITUTED PYRAZOLE CARBOXAMIDES, SALTS THEREOF AND THEIR USE AS HERBICIDALLY ACTIVE SUBSTANCES” (Bayer AG, priority 2023, dated 2024).

Legend:
MATIN [1] = test: A. Herbicidal pre-emergence action on harmful plants (Tables A); assay type: in vivo, Matricaria inodora; conditions: visual grading after ca. 3 weeks vs untreated controls, 100% = plants have died off, 0% = as control plants
How it was run: (§1)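 Greenhouse pre-emergence test: compound applied to the soil surface at 1280 g/ha or below, and herbicidal effect rated visually at ca. 3 weeks on a 0–100% scale against untreated plants.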

ECHCG [2] = test: as above; assay type: in vivo, Echinochloa crus-galli; conditions: visual grading after ca. 3 weeks vs untreated controls, 100% = plants have died off, 0% = as control plants
How it was run: as §1

SETVI [3] = test: as above; assay type: in vivo, Setaria viridis; conditions: visual grading after ca. 3 weeks vs untreated controls, 100% = plants have died off, 0% = as control plants
How it was run: as §1

LOLRI [4] = test: as above; assay type: in vivo, Lolium rigidum; conditions: visual grading after ca. 3 weeks vs untreated controls, 100% = plants have died off, 0% = as control plants
How it was run: as §1

DIGSA [5] = test: as above; assay type: in vivo, Digitaria sanguinalis
How it was run: as §1

KCHSC = test: B. Herbicidal post-emergence action on harmful plants (Tables B); assay type: in vivo, Kochia scoparia
Experimental: (§2) Seeds of mono- and dicotyledonous weed plants were placed in plastic pots in sandy loam soil (doubly sown with in each case one species of mono- or dicotyledonous weed plants per pot), covered with soil and cultivated in a greenhouse under controlled growth conditions. 2 to 3 weeks after sowing, the test plants were treated at the one-leaf stage. The compounds of the invention, formulated in the form of wettable powders (WP) or as emulsion concentrates (EC), were applied onto the green parts of the plants as aqueous suspension or emulsion with addition of 0.5% additive at a water application rate of 600 liters per hectare (converted). After the test plants had been kept in the greenhouse under optimum growth conditions for about 3 weeks, the activity of the preparations was rated visually in comparison to untreated controls. For example, 100% activity = the plants have died, 0% activity = like control plants. Tables B1 to B12, below, show the effects of selected compounds of the general formula (I) according to table 1 on various harmful plants and an application rate corresponding to 1280 g/ha or below obtained by the experimental procedure mentioned above. Table B1a: post-emergence activity at 1280g/ha against ABUTH in %

POAAN [6] = test: A. Herbicidal pre-emergence action on harmful plants (Tables A); assay type: in vivo, Poa annua
How it was run: as §1

STEME [7] = test: as above; assay type: in vivo, Stellaria media; conditions: visual grading after ca. 3 weeks vs untreated controls, 100% = plants have died off, 0% = as control plants
How it was run: as §1

AMARE [8] = test: as above; assay type: in vivo, Amaranthus retroflexus
How it was run: as §1

STEME [9] = test: B. Herbicidal post-emergence action on harmful plants (Tables B); assay type: in vivo, Stellaria media; conditions: application rate 1280 g/ha; Table B6
How it was run: (§3)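 Activity was scored visually as % damage (100% = dead, 0% = like untreated) about 3 weeks after treatment. Plants at the one-leaf stage, 2-3 weeks old, were sprayed with WP/EC formulations plus 0.5% additive (600 L/ha water, up to 1280 g/ha). Plants were grown in sandy loam in a greenhouse.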

VERPE [10] = test: as above; assay type: in vivo, Veronica persica
How it was run: as §3

VERPE [11] = test: A. Herbicidal pre-emergence action on harmful plants (Tables A); assay type: in vivo, Veronica persica; conditions: application rate 1280 g/ha; Table A11
Source text: Seeds of mono- and dicotyledonous weed plants were sown in plastic pots (double sowings with one species of mono- and one species of dicotyledonous weed plants per pot), in sandy loam, and covered with soil. The compounds according to the invention, formulated in the form of wettable powders (WP) or as emulsifiable concentrates (EC), were applied to the surface of the covering soil as aqueous suspension or emulsion, with the addition of 0.5% of an additive, at an application rate of 6001 of water per hectare (converted). Following treatment, the pots were placed in a greenhouse and kept under optimum growth conditions for the test plants. The visual grading of the damage to the test plants was carried out after ca. 3 weeks in comparison to untreated controls (herbicidal effect in percent (%): 100% effect = plants have died off, 0% effect = as control plants). Tables A1 to A12, below, show the effects of selected compounds of the general formula (I) according to table 1 on various harmful plants and an application rate corresponding to 1280 g/ha or below obtained by the experimental procedure mentioned above. Table A1: pre-emergence activity at 1280g/ha against ABUTH in %

ECHCG [12] = test: B. Herbicidal post-emergence action on harmful plants (Tables B); assay type: in vivo, Echinochloa crus-galli
How it was run: as §3

LOLRI [13] = test: as above; assay type: in vivo, Lolium rigidum; conditions: application rate 1280 g/ha; Table B3
Experimental: as §2

AMARE [14] = test: as above; assay type: in vivo, Amaranthus retroflexus; conditions: application rate 1280 g/ha; Table B8
Experimental: as §2

POAAN [15] = test: as above; assay type: in vivo, Poa annua
How it was run: as §3

ABUTH = test: as above; assay type: in vivo, Abutilon theophrasti; conditions: application rate 1280 g/ha; Table B1a
How it was run: as §3

ALOMY = test: A. Herbicidal pre-emergence action on harmful plants (Tables A); assay type: in vivo, Alopecurus myosuroides
How it was run: as §1

SETVI [16] = test: B. Herbicidal post-emergence action on harmful plants (Tables B); assay type: in vivo, Setaria viridis; conditions: application rate 1280 g/ha; Table B5
How it was run: as §3

DIGSA [17] = test: as above; assay type: in vivo, Digitaria sanguinalis; conditions: application rate 1280 g/ha; Table B12a
How it was run: as §3

MATIN [18] = test: as above; assay type: in vivo, Matricaria inodora; conditions: application rate 1280 g/ha; Table B4a
How it was run: as §3

[19] = application rate 320 g/ha, Table A12b
[20] = application rate 1280 g/ha, Table A12a
[21] = application rate 1280 g/ha, Table B10a
[22] = application rate 80 g/ha, Table A7c
[23] = application rate 320 g/ha, Table A7b
[24] = application rate 1280 g/ha, visual grading after ca. 3 weeks vs untreated controls, 100% = plants have died off, 0% = as control plants
[25] = application rate 1280 g/ha, Table B7a
[26] = application rate 1280 g/ha, Table A9a

COCc1c(C(=O)N2CCCC2Cc2ccccc2F)cnn1C (racemic) [Example I-171]
100%: pre-emergence activity against MATIN (MATIN [1]; application rate 1280 g/ha) | pre-emergence activity against ECHCG (ECHCG [2]; application rate 1280 g/ha) | pre-emergence activity against SETVI (SETVI [3]; application rate 1280 g/ha) | pre-emergence activity against LOLRI (LOLRI [4]; application rate 1280 g/ha) | pre-emergence activity against DIGSA (DIGSA [5]; [20]) | pre-emergence activity against POAAN (POAAN [6]; [23]) | pre-emergence activity against POAAN (POAAN [6]; [24])
90%: pre-emergence activity against ECHCG (ECHCG [2]; application rate 320 g/ha) | pre-emergence activity against SETVI (SETVI [3]; application rate 320 g/ha) | pre-emergence activity against LOLRI (LOLRI [4]; application rate 320 g/ha) | pre-emergence activity against DIGSA (DIGSA [5]; [19]) | post-emergence activity against KCHSC (KCHSC; [21]) | pre-emergence activity against POAAN (POAAN [6]; [22]) | pre-emergence activity against STEME (STEME [7]; application rate 1280 g/ha)

COCc1nn(C)cc1C(=O)N1CCCC1Cc1ccc(F)cc1F (single isomer, unassigned) [Example I-079]
100%: pre-emergence activity against LOLRI (LOLRI [4]; application rate 320 g/ha) | pre-emergence activity against LOLRI (LOLRI [4]; application rate 1280 g/ha) | pre-emergence activity against POAAN (POAAN [6]; [22]) | pre-emergence activity against POAAN (POAAN [6]; [23]) | pre-emergence activity against POAAN (POAAN [6]; [24])
90%: pre-emergence activity against MATIN (MATIN [1]; application rate 80 g/ha) | pre-emergence activity against MATIN (MATIN [1]; application rate 320 g/ha) | pre-emergence activity against MATIN (MATIN [1]; application rate 1280 g/ha) | pre-emergence activity against AMARE (AMARE [8]; application rate 320 g/ha, Table A8b) | pre-emergence activity against AMARE (AMARE [8]; [24]) | pre-emergence activity against ECHCG (ECHCG [2]; application rate 80 g/ha) | pre-emergence activity against ECHCG (ECHCG [2]; application rate 320 g/ha) | pre-emergence activity against ECHCG (ECHCG [2]; application rate 1280 g/ha) | post-emergence activity against STEME (STEME [9]) | post-emergence activity against VERPE (VERPE [10]; application rate 320 g/ha, Table B11b) | post-emergence activity against VERPE (VERPE [10]; application rate 1280 g/ha, Table B11a) | pre-emergence activity against VERPE (VERPE [11]) | pre-emergence activity against SETVI (SETVI [3]; application rate 80 g/ha) | pre-emergence activity against SETVI (SETVI [3]; application rate 320 g/ha) | pre-emergence activity against SETVI (SETVI [3]; application rate 1280 g/ha) | post-emergence activity against ECHCG (ECHCG [12]; application rate 320 g/ha, Table B2b) | post-emergence activity against ECHCG (ECHCG [12]; application rate 1280 g/ha, Table B2a) | post-emergence activity against LOLRI (LOLRI [13]) | post-emergence activity against AMARE (AMARE [14]) | pre-emergence activity against LOLRI (LOLRI [4]; application rate 80 g/ha) | post-emergence activity against POAAN (POAAN [15]; application rate 80 g/ha, Table B7c) | post-emergence activity against POAAN (POAAN [15]; application rate 320 g/ha, Table B7b) | post-emergence activity against POAAN (POAAN [15]; [25]) | post-emergence activity against ABUTH (ABUTH) | pre-emergence activity against ALOMY (ALOMY; application rate 320 g/ha, Table A9b) | pre-emergence activity against ALOMY (ALOMY; [26]) | post-emergence activity against SETVI (SETVI [16]) | post-emergence activity against DIGSA (DIGSA [17]) | pre-emergence activity against DIGSA (DIGSA [5]; application rate 80 g/ha, Table A12c) | pre-emergence activity against DIGSA (DIGSA [5]; [19]) | pre-emergence activity against DIGSA (DIGSA [5]; [20]) | pre-emergence activity against STEME (STEME [7]; application rate 80 g/ha) | pre-emergence activity against STEME (STEME [7]; application rate 320 g/ha) | pre-emergence activity against STEME (STEME [7]; application rate 1280 g/ha) | post-emergence activity against MATIN (MATIN [18])

Cn1ncc(C(=O)N2CCCC2Cc2ccccc2F)c1COCC(F)(F)F (racemic) [Example I-163]
100%: pre-emergence activity against VERPE (VERPE [11]) | post-emergence activity against POAAN (POAAN [15]; [25]) | pre-emergence activity against ALOMY (ALOMY; [26]) | pre-emergence activity against POAAN (POAAN [6]; [24])
90%: pre-emergence activity against ECHCG (ECHCG [2]; application rate 1280 g/ha) | pre-emergence activity against DIGSA (DIGSA [5]; [20]) | post-emergence activity against KCHSC (KCHSC; [21]) | pre-emergence activity against STEME (STEME [7]; application rate 1280 g/ha)

CC(C)COCc1nn(C)cc1C(=O)N1CCCC1Cc1cc(F)ccc1F (racemic) [Example I-009]
100%: pre-emergence activity against AMARE (AMARE [8]; [24]) | pre-emergence activity against ECHCG (ECHCG [2]; application rate 1280 g/ha) | pre-emergence activity against SETVI (SETVI [3]; application rate 1280 g/ha) | post-emergence activity against DIGSA (DIGSA [17]) | post-emergence activity against KCHSC (KCHSC; application rate 320 g/ha, Table B10b) | post-emergence activity against KCHSC (KCHSC; [21]) | pre-emergence activity against POAAN (POAAN [6]; [24])
90%: post-emergence activity against AMARE (AMARE [14]) | pre-emergence activity against DIGSA (DIGSA [5]; [20]) | post-emergence activity against MATIN (MATIN [18])
